Reference: patent US12630512B2, “Agents for differentiating stem cells and treating cancer” (Minerva Biotechnologies Corporation, priority 2017, dated 2026)

Columns and labels:
[1] = test system: human naïve state stem cells; assay: Stem cell drug screen on naïve state stem cells (pluripotency, proliferation, differentiation); type: cell-based; parameters: key to score for inhibition of naïve stem cell pluripotency and proliferation: 0 being no change in morphology or cell number; 4 being the most profound effect; conditions: naïve state stem cells; for inhibition at 6 µM: Homo sapiens, 6 uM final concentration per FIGS. 46-64, read-out: inhibited naïve stem cell pluripotency and proliferation; for score for inhibition of naïve stem cell pluripotency and proliferation: scored by eye 0-4, 6 uM per FIGS. 46-64
Procedure: (§1) The stem cell screening assay, was performed in both the presence and absence of the stem cell growth factors: NME7AB for growing naïve stem cells or FGF for growing primed stem cells. If the cognate growth factor was present, then the biological or small molecule would have to compete away the growth factor to get an effect. Therefore, we expected to see more of an effect when the growth factor, FGF for primed stem cells or NME7AB or NME1 dimers for naïve stem cells, was absent. The effect of the compounds on stem cells was visually determined and compounds were ranked 0-4, with 4 being the greatest effect and 0 being no observable effect. The major effect that was observed was a change from pluripotent stem cell morphology, which is a cobblestone pattern of small round cells with a large nucleus to cytoplasm ratio, to that of differentiating stem cells, which are elongated, large and flattened cells with a smaller nucleus to cytoplasm ratio. […] The compounds were added to a final concentration of 6 uM to either naïve state stem cells or primed state stem cells. In this particular case, the naïve state stem cells were maintained in a naïve state by culturing in a media containing NME7AB or NME1 dimers. However, other methods such as 2i and 5i (Silva et al., 2008, Nichols and Smith, 2009, Theunissen et al., 2014)] can be used to maintain stem cells in a more naïve state. In this case primed state stem cells were cultured in bFGF over a layer of MEFs, although it is known that any bFGF containing media will maintain stem cells in the primed state.
(§2) Percent inhibition of cancer cell migration was performed in a wound healing assay. The percent area that the invading cancer cells occupied, in the presence of a drug candidate compared to the controls, was quantified by Image J cell software which enables cell counting from photographs. IC50's were calculated by performing migration experiments at several compound concentrations and then applying Hill's equation. Inhibition of cancer cell proliferation was quantified by automated cell counting in the presence or absence of a drug candidate. Here, the inhibition of cancer cell proliferation was scored 1 if proliferation was inhibited by 25%, 2 if inhibited by […] and 4 for the highest degree of inhibition of proliferation, and 0 for the lowest. The effect of the drug candidates on stem cell pluripotency or proliferation was scored by eye, based on cell morphology and cell density, with 0 being no change in morphology or cell number and 4 being the most profound effect, with the stem cells taking on the morphology of a differentiating cell, along with much fewer cells indicative of inhibition of proliferation. As an example, FIGS. 30A-30F show photographs of naïve stem cell, primed stem cell and fibroblast controls. FIGS. 31A-31F show the effect of compounds of the invention on naïve state stem cells, where the number of ‘+’ signs indicates the score from 0-4 of ability of compound to inhibit pluripotency, proliferation of naïve stem cells or ability to induce their differentiation. […] FIGS. 36-44 and 65-87 show photographs and IC50 graphs of the compounds of the invention, inhibiting cancer cell migration and invasion. Cancer cell migration is a hallmark of metastatic cancer.
Stem cells whether embryonic or induced pluripotent stem (iPS) cells were cultured in a minimal, serum-free media that contained human recombinant NME7AB at a concentration of 2-32 nM wherein 4-8 nM is preferred and 4 nM is more preferred. To facilitate surface attachment, cell culture plates were coated with an anti-MUC1* monoclonal antibody called MN-C3 or C3 or MN-C8 at a concentration of 2-100 μg/mL coating solution, wherein 3-50 ug/mL is preferred and 6-12.5 ug/mL is more preferred. In these experiments, 12.5 ug/mL of MN-C3 was used. Antibody coated plates were incubated at 4 degrees C. overnight prior to plating stem cells. A Rho kinase I inhibitor was added to enhance surface attachment. […]

[2] = test system: human primed state stem cells; assay: Stem cell drug screen on primed state stem cells (pluripotency, proliferation, differentiation); type: cell-based; conditions: primed state stem cells; 6 uM per FIGS. 46-64
Procedure: as §1, §2
Stem cells whether embryonic or induced pluripotent stem (iPS) cells were cultured in a minimal, serum-free media that contained human recombinant bFGF at a concentration of 8 ng/mL. The stem cells were plated over a layer of inactivated mouse embryonic fibroblasts, aka MEFs, which secrete additional uncharacterized growth factors and cytokines.
Human naïve state and primed stem cells were cultured in parallel for at least 5 passages to guarantee normal differentiation-free growth. The stem cells were plated in 12-well cell culture plates with 50,000 cells per well. Cells were cultured in their respective media, either bFGF media or NME7AB media for 24 hours. […]

[3] = test system: micro-RNA-145; assay: RT-PCR measurement of miR-145 in T47D cancer cells; type: cell-based, human; conditions: treated for 72 hours (FIG. 92A-92C)
Procedure: FIGS. 92A-92C show graphs of RT-PCR measurement of T47D cancer cells treated for 72 hours with compounds of the invention at the indicated concentrations, wherein the gene that is measured is micro-RNA-145, which is a harbinger of stem cell differentiation
We used RT-PCR to measure changes in the expression of some of these super-enhancer genes, AXIN2, which is a surrogate for activated β-catenin, miR-145, MUC1 and MUC1* ligands NME7AB and NME7-X1. […] Thus, compounds of the invention, at least in part, inhibit tumor cell migration and invasiveness by inducing expression of genes that are critical for differentiation, some of which are super-enhancer target genes, and miR-145, while decreasing expression of β-catenin, MUC1 and its growth factor NME7AB. Novel compounds of the invention are powerful agents for the treatment or prevention of cancers and metastatic cancers. […] In one aspect of the invention, a biological sample from a patient is tested for the presence of MUC1*, NME7AB or NME7-X1, and upon finding that the patient's cancer is positive for MUC1*, NME7AB or NME7-X1, a compound of the invention is administered to the patient in an amount suitable to prevent or treat the cancer. In one instance, the patient sample is subjected to a test, such as PCR, to determine the amount of nucleic acid that encodes MUC1, NME7 or NME7-X1. […] In another aspect of the invention, the patient's cancer is considered to be MUC1* positive, NME7AB positive or NME7-X1 positive if expression of those genes is equal to or greater than 0.5% of EEF1A1 expression in those cells. In yet another aspect of the invention, the patient's cancer is considered to be MUC1* positive if the patient's tissue specimen is contacted with an antibody that binds to the PSMGFR peptide or the N-10 peptide and stains the tissue with a pathologist's standard score 1-4 (“+−++++”). […]

With `CN(CC1CCC(C(=O)N2CCC(c3ccncc3)CC2)CC1)C(=O)OC(C)(C)C` (stereo not drawn) [MN1428, Tert-butyl methyl((4-(4-(pyridin-4-yl)piperidine-1-carbonyl)cyclohexyl)methyl)carbamate] the inhibition at 6 µM [1] was 100%, the “score for inhibition of naïve stem cell pluripotency and proliferation” value (from here on “score for inhibition”) [1] was 4 and the “effect on primed state stem cells” value [2] was “no effect”. For the same molecule, the “expression of miR-145 in T47D cancer cells” value (“expression” for short) [3] was “increased expression of miR-145 in cancer cells”.
`CN(C[C@H]1CC[C@H](C(=O)N2CCc3c([nH]c4ccccc34)C2C2CC2)CC1)C(=O)NC(C)(C)C` (stereo partly drawn) [MN1413] was tested, and the inhibition at 6 µM [1] was 100%, the “score for inhibition” value [1] was 4 and the “effect on primed state stem cells” value [2] was “no effect”. For the same molecule, the “expression” value [3] was “increased expression of miR-145 in cancer cells”.
`C[C@@H]1Cc2c([nH]c3ccccc23)CN1C(=O)C1CCC(CN(C)C(=O)NC(C)(C)C)CC1` (stereo partly drawn) [MN1423] was tested, and the inhibition at 6 µM [1] was 100%, the “score for inhibition” value [1] was 4 and the “effect on primed state stem cells” value [2] was “no effect”. The “expression” value [3] was “increased expression of miR-145 in cancer cells”.
